From patent US20090306072A1, “USE OF TYROSINE KINASE INHIBITORS FOR THE TREATMENT OF INFLAMMATORY PROCESSES” (Boehringer Ingelheim Pharma GmbH & Co. KG, priority 2002, published 2009)

test system: cigarette smoke-induced influx of neutrophilic granulocytes into the lung tissue; test: Test 1: inhibition of smoke-induced accumulation of granulocytes in the lung tissue (MPO activity); format: in vivo, rats (Sprague-Dawley); conditions: Rattus norvegicus; male rats, smoke from 8 cigarettes a day for 5 days; intratracheal dose each day 30 mins before smoke exposure; lung tissue MPO; linear regression; read-out: ID50 (dosage that produced a 50% inhibition of the MPO activity)
Protocol: Male rats (breed: Sprague-Dawley) weighing from 250-300 g were exposed to the smoke from 8 cigarettes a day for 5 days. […] On the last day of the experiment the animals were killed 4 hours after the final smoke exposure and the lung tissue was removed. From each lung a sample of 70-200 mg was taken and placed in a prepared test tube containing 1 ml of 0.5% hexadecyltrimethyl ammonium bromide. The samples were homogenised for 15 sec with an Ultraturrax. The homogenates were centrifuged off in an Eppendorf bench centrifuge at 15700 g for 5 min at ambient temperature. […] After 10 minutes' incubation at ambient temperature, the absorption was measured with a spectral photometer at a wavelength of 450 nm.

Row | Molecule | ED50
1 | C=CC(=O)Nc1cc2c(Nc3ccc(F)c(Cl)c3)ncnc2cc1OCCCCN1CC(=O)O[C@H](C)C1 [B, 4-[(3-chloro-4-fluoro-phenyl)amino]-7-[4-((R)-6-methyl-2-oxo-morpholin-4-yl)-butyloxy]-6-[(vinylcarbonyl)amino]-quinazoline] | 0.03 mg/kg
2 | C=CC(=O)Nc1cc2c(Nc3ccc(F)c(Cl)c3)ncnc2cc1OCCCCN1CC(=O)OC(C)(C)C1 [C, 4-[(3-chloro-4-fluoro-phenyl)amino]-7-[4-(2,2-dimethyl-6-oxo-morpholin-4-yl)-butyloxy]-6-[(vinylcarbonyl)amino]-quinazoline] | 0.03 mg/kg
3 | C=CC(=O)Nc1cc2c(Nc3ccc(F)c(Cl)c3)ncnc2cc1OCCCCN1CC(=O)O[C@@H](C)C1 [D, 4-[(3-chloro-4-fluoro-phenyl)amino]-7-[4-((S)-6-methyl-2-oxo-morpholin-4-yl)-butyloxy]-6-[(vinylcarbonyl)amino]-quinazoline] | 0.3 mg/kg
4 | COCCN(CC=CC(=O)Nc1cc2c(Nc3ccc(F)c(Cl)c3)ncnc2cc1OCC1CC1)CCOC [E, 4-[(3-chloro-4-fluoro-phenyl)amino]-6-({4-[bis-(2-methoxyethyl)-amino]-1-oxo-2-buten-1-yl}amino)-7-cyclopropylmethoxy-quinazoline] | 0.2 mg/kg
5 | C[C@@H]1CN(CC=CC(=O)Nc2cc3c(Nc4ccc(F)c(Cl)c4)ncnc3cc2OCC2CC2)CC(=O)O1 [F, 4-[(3-chloro-4-fluoro-phenyl)amino]-6-{[4-((R)-6-methyl-2-oxo-morpholin-4-yl)-1-oxo-2-buten-1-yl]amino}-7-cyclopropylmethoxy-quinazoline] | 0.3 mg/kg
6 | COC[C@@H]1CN(CC=CC(=O)Nc2cc3c(Nc4ccc(F)c(Cl)c4)ncnc3cc2OCC2CC2)CC(=O)O1 [H, 4-[(3-chloro-4-fluoro-phenyl)amino]-6-{[4-((S)-2-methoxymethyl-6-oxo-morpholin-4-yl)-1-oxo-2-buten-1-yl]amino}-7-cyclopropylmethoxy-quinazoline] | 0.3 mg/kg
7 | CCN(CC=CC(=O)Nc1cc2c(N[C@H](C)c3ccccc3)ncnc2cc1OCC1CC1)CCOC [I, 4-[(R)-(1-phenyl-ethyl)amino]-6-({4-[N-(2-methoxy-ethyl)-N-ethyl-amino]-1-oxo-2-buten-1-yl}amino)-7-cyclopropylmethoxy-quinazoline] | 0.2 mg/kg
8 | COCCN(CC=CC(=O)Nc1cc2c(N[C@H](C)c3ccccc3)ncnc2cc1OCC1CC1)CCOC [K, 4-[(R)-(1-phenyl-ethyl)amino]-6-{[4-(N,N-bis-(2-methoxy-ethyl)-amino)-1-oxo-2-buten-1-yl]amino}-7-cyclopropylmethoxy-quinazoline] | 0.3 mg/kg
9 | C[C@@H](Nc1ncnc2cc(OCC3CC3)c(NC(=O)C=CCN(C)C3CCOCC3)cc12)c1ccccc1 [L, 4-[(R)-(1-phenyl-ethyl)amino]-6-({4-[N-(tetrahydropyran-4-yl)-N-methyl-amino]-1-oxo-2-buten-1-yl}amino)-7-cyclopropylmethoxy-quinazoline] | 0.1 mg/kg
10 | COc1cc2ncnc(Nc3ccc(F)c(Cl)c3)c2cc1OCCN1CC(=O)O[C@@H](C)C1 [compound A, 4-[(3-chloro-4-fluoro-phenyl)amino]-6-[2-((S)-6-methyl-2-oxo-morpholin-4-yl)-ethoxy]-7-methoxy-quinazoline] | 0.1 mg/kg

same assay, conditions: male rats, smoke from 8 cigarettes a day for 5 days; intratracheal dose each day 30 mins before smoke exposure; lung tissue MPO; linear regression

Row | Molecule | ID50 (dosage that produced a 50% inhibition of the MPO activity)
11 | 4-[(3-chloro-4-fluoro-phenyl)amino]-6-[2-((S)-6-methyl-2-oxo-morpholin-4-yl)-ethoxy]-7-methoxy-quinazoline [G] | <0.03 mg/kg

same assay, conditions: rats, intratracheal 0.03 or 0.1 mg/kg daily, lung tissue myeloperoxidase

Row | Molecule | inhibition of the smoke-induced accumulation of granulocytes
12 | COc1cc2ncnc(Nc3ccc(F)c(Cl)c3)c2cc1OCCN1CC(=O)O[C@@H](C)C1 [compound A, 4-[(3-chloro-4-fluoro-phenyl)amino]-6-[2-((S)-6-methyl-2-oxo-morpholin-4-yl)-ethoxy]-7-methoxy-quinazoline] | significant (p<0.005) inhibition

test system: zymosan-induced influx of neutrophilic granulocytes in the mouse ear; test: Test 2: inhibition of the zymosan-induced influx of neutrophilic granulocytes in the mouse ear (MPO activity); format: in vivo; conditions: female NMRI mice, ear biopsy 24 h after intradermal zymosan; p<0.005
Text: • Test 2: Detection of a general anti-inflammatory principle of activity by inhibition of the zymosan-induced influx of neutrophilic granulocytes in the mouse ear by the EGF-receptor kinase inhibitor 4-[(3-chloro-4-fluoro-phenyl)amino]-6-[(4-dimethylamino-cyclohexyl)amino]-pyrimido[5,4-d]pyrimidine (compound N).
Determining the influx of neutrophilic granulocytes by measuring the myeloperoxidase (MPO) activity in the tissue. MPO is specific for neutrophilic granulocytes.
Female mice (breed: NMRI) weighing 20-25 g were anaesthetised with pentobarbital 60 mg/kg i.p. […] of zymosan dissolved in physiological saline in a volume of […] were administered intradermally into the right ear. 24 h after the intradermal application of zymosan the animals were killed with an overdose of pentobarbital. An ear biopsy (0=8 mm) was taken from the left (untreated) and right (treated) ear and placed in a test tube prepared with 1 ml of 0.5% HTAB. The samples were homogenised for 15 sec with an Ultraturrax. The homogenised preparations were centrifuged for 5 min in an Eppendorf bench centrifuge at 15700 g at ambient temperature. […] After 10 minutes' incubation at ambient temperature the absorption was measured with a spectral photometer at a wavelength of 450 nm.

Row | Molecule | inhibition of the zymosan-induced increase in the MPO activity in the tissue
13 | CN(C)C1CCC(Nc2ncc3ncnc(Nc4ccc(F)c(Cl)c4)c3n2)CC1 (stereo not drawn) [compound N, 4-[(3-chloro-4-fluoro-phenyl)amino]-6-[(4-dimethylamino-cyclohexyl)amino]-pyrimido[5,4-d]pyrimidine] | 60%

test system: not given; test: not given; conditions: not given

Row | melting point | Molecule
14 | 110 to 112 °C | C=CC(=O)Nc1cc2c(Nc3ccc(F)c(Cl)c3)ncnc2cc1OCCCCN1CC(=O)OC(C)(C)C1 [C, 4-[(3-chloro-4-fluoro-phenyl)amino]-7-[4-(2,2-dimethyl-6-oxo-morpholin-4-yl)-butyloxy]-6-[(vinylcarbonyl)amino]-quinazoline]
15 | 137 °C | CN(C)CC=CC(=O)Nc1cc2c(Nc3ccc(F)c(Cl)c3)ncnc2cc1OCC1CC1 [Example 3(2), 4-[(3-chloro-4-fluorophenyl)amino]-6-{[4-(N,N-dimethylamino)-1-oxo-2-buten-1-yl]-amino}-7-cyclopropylmethoxy-quinazoline]
16 | 114 °C | CCN(CC)CC=CC(=O)Nc1cc2c(Nc3ccc(F)c(Cl)c3)ncnc2cc1OCC1CC1 [Example 3, 4-[(3-chloro-4-fluorophenyl)amino]-6-{[4-(N,N-diethylamino)-1-oxo-2-buten-1-yl]amino}-7-cyclopropylmethoxy-quinazoline]
17 | 122 to 124 °C | CCOC(=O)CN(C)CC=CC(=O)Nc1cc2c(Nc3cccc(C)c3)ncnc2cc1OC [Example 4, 4-[(3-methylphenyl)amino]-6-[(4-{N-[(ethoxycarbonyl)methyl]-N-methylamino}-1-oxo-2-buten-1-yl)amino]-7-methoxy-quinazoline]
18 | 173 to 175 °C | C[C@H]1CN(CC=CC(=O)Nc2cc3c(Nc4ccc(F)c(Cl)c4)ncnc3cc2OCC2CC2)CC(=O)O1 [Example 6, 4-[(3-chloro-4-fluoro-phenyl)amino]-6-{[4-((S)-6-methyl-2-oxo-morpholin-4-yl)-1-oxo-2-buten-1-yl]amino}-7-cyclopropylmethoxy-quinazoline]
19 | 190 °C | COc1cc2ncnc(Nc3cccc(Br)c3)c2cc1OCCN1CC(=O)O[C@@H](C)C1 [Example 7, 4-[(3-bromo-phenyl)amino]-6-[2-((S)-6-methyl-2-oxo-morpholin-4-yl)-ethoxy]-7-methoxy-quinazoline]
20 | 140 °C | CN(CC=CC(=O)Nc1cc2c(Nc3ccc(F)c(Cl)c3)ncnc2cc1OC1CCCC1)C1CC1 [Example 8(9), 4-[(3-chloro-4-fluorophenyl)amino]-6-{[4-(N-cyclopropyl-N-methyl-amino)-1-oxo-2-buten-1-yl]amino}-7-cyclopentyloxy-quinazoline]
21 | 110 to 112 °C | CN(C)CC=CC(=O)Nc1cc2c(Nc3ccc(F)c(Cl)c3)ncnc2cc1OC[C@H]1CCCO1 [Example 8(10), 4-[(3-chloro-4-fluorophenyl)amino]-6-{[4-(N,N-dimethylamino)-1-oxo-2-buten-1-yl]-amino}-7-[(R)-(tetrahydrofuran-2-yl)methoxy]-quinazoline]
